The cell lines below were run with CC1=C(N=C(N=C1N)[C@H](CC(=O)N)NC[C@@H](C(=O)N)N)C(=O)N[C@@H]([C@H](C2=CN=CN2)OC3C(C(C(C(O3)CO)O)O)OC4C(C(C(C(O4)CO)O)OC(=O)N)O)C(=O)N[C@H](C)[C@H]([C@H](C)C(=O)N[C@@H]([C@@H](C)O)C(=O)NCCC5=NC(=CS5)C6=NC(=CS6)C(=O)NCCC[S+](C)C)O [Bleomycin] + CCNC(=O)c1noc(-c2cc(C(C)C)c(O)cc2O)c1-c1ccc(CN2CCOCC2)cc1 [Luminespib] (partner 0.01 µM) (assay: relative viability (nuclei count vs DMSO), 5 days (fraction); higher = more cells survive). Conditions: first compound 0.01 µM; main component drawn.
Procedure, shortened: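 Relative viability is defined as nuclei in treated wells over nuclei in vehicle wells. Duplicate plates were run and medians reported. Lung cancer cell lines in 1536-well plates were dosed by pin tool one day after seeding, with one drug or with a fixed anchor-drug dose plus five library-drug doses (not always all listed) in √10 steps, and nuclei were counted after 5 days.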

Cell Line | relative viability
NCI-H522 | 0.775
NCI-H1623 | 0.396
NCI-H838 | 0.269
NCI-H1650 | 0.172
NCI-H1993 | 0.738
PC-14 | 0.148
LCLC-103H | 0.849
NCI-H596 | 0.755
NCI-H2228 | 0.149
EMC-BAC-2 | 0.997
NCI-H2085 | 0.408
NCI-H1666 | 0.733
NCI-H647 | 0.111
LK-2 | 0.172
NCI-H2126 | 0.954
NCI-H2342 | 0.646
SK-MES-1 | 0.701
H3255 | 0.817
COR-L23 | 0.501
COR-L 105 | 0.665
LOU-NH91 | 0.307
ChaGo-K-1 | 0.505
NCI-H2170 | 0.604
NCI-H3122 | 0.103
HCC-44 | 0.39
NCI-H1792 | 0.393
NCI-H1563 | 0.512

Same assay, conditions: first compound 0.03162 µM; main component drawn

Cell Line | relative viability
NCI-H522 | 0.66
NCI-H1623 | 0.474
NCI-H838 | 0.176
NCI-H1650 | 0.213
NCI-H1993 | 0.497
NCI-H2087 | 0.162
PC-14 | 0.144
LCLC-103H | 0.826
NCI-H596 | 0.617
NCI-H2228 | 0.129
EMC-BAC-2 | 0.832
NCI-H2085 | 0.436
NCI-H1666 | 0.657
NCI-H647 | 0.169
LK-2 | 0.15
NCI-H2126 | 0.934
NCI-H2342 | 0.665
SK-MES-1 | 0.641
H3255 | 0.878
COR-L23 | 0.352
COR-L 105 | 0.743
LOU-NH91 | 0.315
ChaGo-K-1 | 0.476
NCI-H2170 | 0.494
NCI-H3122 | 0.145
HCC-44 | 0.277
NCI-H1792 | 0.424
NCI-H1563 | 0.535

Same assay, conditions: first compound 0.1 µM; main component drawn

Cell Line | relative viability
NCI-H522 | 0.508
NCI-H1623 | 0.525
NCI-H838 | 0.142
NCI-H1650 | 0.213
NCI-H1993 | 0.716
NCI-H2087 | 0.188
PC-14 | 0.121
LCLC-103H | 0.747
NCI-H596 | 0.552
NCI-H2228 | 0.186
EMC-BAC-2 | 0.8
NCI-H2085 | 0.369
NCI-H1666 | 0.583
NCI-H647 | 0.104
LK-2 | 0.185
NCI-H2126 | 0.872

From the supplement of paper PMC10307832
